Laboratory results reported in patent US4985445A, “Cancer cell metastasis inhibitors and novel compounds” (Meiji Seika Kaisha, Ltd., priority 1988, dated 1991).

What was measured:
[1] = system: B16 subline of high pulmonary metastatic potential; assay: Inhibition of pulmonary metastasis of B16 subline pretreated with compound and injected i.v. into BDF1 mice; assay type: in vivo, murine; mouse BDF1; conditions: for Pulmonary Metastasis, Mouse 1 / Pulmonary Metastasis, Mouse 2 / Pulmonary Metastasis, Mouse 3 / Pulmonary Metastasis (Mean ± Standard Deviation): 14 days; for Pulmonary Metastasis (Mean ± Standard Deviation): None 32 ± 3.0; for Pulmonary Metastasis, %: None = 100
Description: Based on the method described priviously (Method in Cancer Research, 15, 399-439, 1978), a subline of high metastatic potential (high pulmonary colonization) was selected from murine melanoma B16 by repeating the i.v. transplantation of the tumor cells in BDF1 mice and the isolation of pulmonary metastatic clones.
Evaluation of the metastasis inhibiting activity was performed based on the method described previously (Proc. Natl Acad. Sci. USA, 83, 1752-1756, 1986, Cancer Research, 46, 858-862, 1986).
Firstly, the B16 subline of high metastatic potential was inoculated into Dulbecco's ME medium (DME medium) supplemented with 10% bovine fetal serum and the compound represented by general formula (I) described above was added thereto.
The B16 subline of high pulmonary metastatic potential was inoculated into DME medium supplemented with 10% bovine fetal serum and 30, 100 or 300 μg/ml of N (3-phenylpropyl)-1-deoxynojirimycin was added thereto followed by incubation at 37° C. for 3 days in the presence of 5% CO2.
Inhibition of metastasis was examined in a manner similar to Test Example 2 except that N-(3-phenyl-2-propenyl)-1-deoxy-nojirimycin and N-(3-p-chlorophenyl-3-methyl-2-propenyl)-1-deoxynojirimycin were used instead of N-(3-phenylpropyl)-1-deoxynojirimycin in Test Example 2. In this test example, however, 2.5×10^5 cells each of the B16 subline were transplanted to 3 mice for each group.
The B16 subline of high pulmonary metastatic potential was inoculated into DME medium supplemented with 10% bovine fetal serum and 30 μg/ml of N-(4-phenoxy-trans-2-butenyl)-1-deoxynojirimycin was added thereto followed by incubation at 37° C. for 3 days in the presence of 5% CO2. […] The number of colonies of the B16 subline formed on the surface of and in the lung was counted.
Inhibition of metastasis was examined in a manner similar to Test Example 5 except that N-(2-phenoxyethyl)-1-deoxynojirimycin was used instead of N-(4-phenoxy-trans-2-butenyl)-1-deoxynojirimycin in Test Example 5.
The B16 sibline of high pulmonary metastatic potential was inoculated into DME medium supplemented with 10% bovine fetal serum and 10 μg/ml of D-glucaro-δ-lactam calcium salt was added thereto followed by incubation at 37° C. for 3 days in the presence of 5% CO2. […] The number of the colonies formed on the surface of and in the lung was counted.
Inhibition of metastasis was examined in a manner similar to Test Example 8 except that D-glucaro-δ-lactam methyl ester and D-glucaro-δ-lactam ethyl ester were used instead of D-glucaro-δ-lactam calcium salt in Test Example 8.
The B16 subline of high pulmonary metastatic potential was inoculated into DME medium supplemented with 10% bovine fetal serum and 10 μg/ml of 2,6-di-O-(acetylsalicyloyl)-D-gluco-δ-lactam was added thereto followed by incubation at 37° C. for 3 days in the presence of 5% CO2.
The B16 subline of high pulmonary metastatic potential was inoculated into DME medium supplemented with 10% bovine fetal serum and 30 μg/ml of 6-O-triphenylmethyl-D-gluco-δ-lactam was added thereto followed by incubation at 37° C. for 3 days in the presence of 5% CO2.
The B16 subline of high pulmonary metastatic potential was inoculated into DME medium supplemented with 10% bovine fetal serum and 30 μg/ml of 1-deoxynojirimycin was added thereto followed by incubation at 37° C. for 3 days in the presence of 5% CO2.

[2] = system: murine tumor cell line L 929; assay: Cytotoxic activity against L 929 (growth observed with inverted microscope, 4 days); assay type: cell-based; conditions: for Growth: 4 days;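 for growth: + means growth and ± means marked inhibition and - means cell death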
Description: The B16 subline of high pulmonary metastatic potential and murine tumor cell line L 929 were cultured in DME medium supplemented with 10% bovine fetal serum at 37° C. in the presence of 5% CO2.
The B16 subline of high pulmanary metastatic potential and murine tumor cell line L 929 were cultured in DME medium supplemented with 10% bovine fetal serum at 37° C. in the presence of 5% CO2.

SMILES: OC[C@@H]1[C@@H](O)[C@H](O)[C@@H](O)CN1CCCc1ccccc1 [N-(3-Phenylpropyl)-1-deoxynojirimycin, N-(3-phenylpropyl)-1-deoxynojirimycin]
- Inhibition of metastasis to the lungs (in words) ([1]; B16 subline, BDF1 mice): shows decrease in the number of colonies
- Pulmonary Metastasis, Mouse 1 ([1]; Table 3, 30 μg/ml): 9 no.
- Pulmonary Metastasis, Mouse 2 ([1]; Table 3, 30 μg/ml): 22 no.
- Pulmonary Metastasis, Mouse 3 ([1]; Table 3, 30 μg/ml): 37 no.
- Pulmonary Metastasis (Mean ± Standard Deviation) ([1]; Table 3, 30 μg/ml): 22.7 ± 14.0 no.
- Pulmonary Metastasis, % ([1]; Table 3, 30 μg/ml): 68.8%
- Pulmonary Metastasis, Mouse 1 ([1]; Table 3, 100 μg/ml): 4 no.
- Pulmonary Metastasis, Mouse 2 ([1]; Table 3, 100 μg/ml): 4 no.
- Pulmonary Metastasis, Mouse 3 ([1]; Table 3, 100 μg/ml): 6 no.
- Pulmonary Metastasis (Mean ± Standard Deviation) ([1]; Table 3, 100 μg/ml): 4.7 ± 1.2 no.
- Pulmonary Metastasis, % ([1]; Table 3, 100 μg/ml): 14.7%
- Pulmonary Metastasis, Mouse 1 ([1]; Table 3, 300 μg/ml): 0 no.
- Pulmonary Metastasis, Mouse 2 ([1]; Table 3, 300 μg/ml): 0 no.
- Pulmonary Metastasis, Mouse 3 ([1]; Table 3, 300 μg/ml): 3 no.
- Pulmonary Metastasis (Mean ± Standard Deviation) ([1]; Table 3, 300 μg/ml): 1 ± 1.7 no.
- Pulmonary Metastasis, % ([1]; Table 3, 300 μg/ml): 3.1%
- Cytotoxicity (in words) ([2]; L 929, even at a concentration as high as 100 μg/ml): did not show marked cytotoxicity
- Growth ([2]; Table 2, L 929, 0.5 μg/ml): +
- Growth ([2]; Table 2, L 929, 5 μg/ml): +
- Growth ([2]; Table 2, L 929, 50 μg/ml): +
- Growth ([2]; Table 2, L 929, 100 μg/ml): +
